# Where “and” joins values, the source holds several entries; their conditions need not be identical. Equal entries are not always repeated. Where two headings read alike, the source gives them in different places.
# Legend:
# [1] = Colorimetric alkylation rate constant assay with TNB^2− as non-specific thiol; assay type: physicochemical; parameters: second-order: unit not given here; conditions: [B]0 = 250, Replicates 1-3
# [2] = Competition assay: N1–E4 dimerization in the presence of competitors C1–6 (HPLC); assay type: physicochemical; conditions: equimolar E4, competitor and N1, 50 μM each
# [3] = Colorimetric alkylation rate constant assay with thiol N1; assay type: physicochemical
# THP-1 Lucia ISG cells = test: β-Glucuronidase-specific STING activation, cytokine secretion assays; assay type: cell-based, human; conditions: 25 μM each, with β-glucuronidase 250 units ml^−1, 24 h
# Procedure: THP-1 Lucia ISG cells were maintained as described above. On the day of the experiment, cells were pelleted (150g, 10 min) and resuspended in the growth medium (40% conditioned) at a density of 1 × 10^6 cells ml^−1. […] The supernatants were collected, aliquoted and frozen at −20 °C for future analysis. […] Data were analysed by two-tailed Welch’s t-test (GraphPad Prism).
# CT26mβGUS tumours [4] = conditions: mouse, in vivo
# THP-1 cells = test: Dilution limits of N1/E4 combination to activate THP-1 cells (IFN-β ELISA); conditions: IFN-β secretion, 6 h, single component
# [5] = LC-MS analysis of the N1–E4 reaction in the presence of glutathione; assay type: physicochemical; conditions: 50 μM N1 + 50 μM E4, 1 mM glutathione, pH 7.0, 37 °C, 2 h
# Procedure: Extended Data Fig. 5 LC-MS analysis of the reaction between N1 and E4 in the presence of glutathione (1 mM). N1 (50 μM) and E4 (50 μM) were reacted at neutral pH (25 mM HEPES pH 7.0, 150 mM NaCl) and in the presence of reduced glutathione (1 mM). The reaction mixture was incubated at 37 °C for 2 h. No glutathione-adduct of E4 was identified. TEXT PRINTED IN THE PICTURE: no label printed: exact mass: 340.04 | no label printed: exact mass: 618.05
# E. coli β-glucuronidase = E. coli β-glucuronidase (Escherichia coli, UniProt P05804); conditions: pH 6.8
# [6] = Stability test in human plasma; assay type: in vitro ADME; conditions: 48 h, 37 °C
# Procedure: Extended Data Fig. 6 Stability test of β-GlcA-N1 (1 mM) in human plasma. At the indicated time point, an 80 µL aliquot was loaded onto an Agilent Bond Elut solid phase extraction column (C18, 3 mL bed volume). The collected eluent was lyophilized, redissolved in a 50% (v/v) acetonitrile in water (0.1% v/v formic acid), and analyzed by LC-MS. TEXT PRINTED IN THE PICTURE: β-GlcA-N1: integration value: 91206 (t = 0 hr, human plasma); integration value: 84431 (t = 48 hr, 37 °C, human plasma) | no label printed: exact mass: 502.06 | no label printed: exact mass: 309.02 DOUBTS OF THE COPYIST ABOUT THIS PICTURE: The name β-GlcA-N1 is printed only at the peak in the upper chromatogram. The lower chromatogram's integration value (84431) is assigned to it as the same peak. / The two drawn structures have no printed label. Their exact masses are given with an empty substance label.
# CT26mβGUS tumours [7] = test: CT26mβGUS syngeneic mouse tumour model; conditions: single component alone
# human β-glucuronidase = target: T1, human β-glucuronidase (Homo sapiens, UniProt P08236); test: Michaelis–Menten kinetics of β-GlcA-N1 cleavage; assay type: biochemical; conditions: for dilution-corrected deltaN1: replicates 1 and 2
# T1 construct: purchased AcroBiosystems BEB-H52H3
# T1 sequence (P08236 23-651): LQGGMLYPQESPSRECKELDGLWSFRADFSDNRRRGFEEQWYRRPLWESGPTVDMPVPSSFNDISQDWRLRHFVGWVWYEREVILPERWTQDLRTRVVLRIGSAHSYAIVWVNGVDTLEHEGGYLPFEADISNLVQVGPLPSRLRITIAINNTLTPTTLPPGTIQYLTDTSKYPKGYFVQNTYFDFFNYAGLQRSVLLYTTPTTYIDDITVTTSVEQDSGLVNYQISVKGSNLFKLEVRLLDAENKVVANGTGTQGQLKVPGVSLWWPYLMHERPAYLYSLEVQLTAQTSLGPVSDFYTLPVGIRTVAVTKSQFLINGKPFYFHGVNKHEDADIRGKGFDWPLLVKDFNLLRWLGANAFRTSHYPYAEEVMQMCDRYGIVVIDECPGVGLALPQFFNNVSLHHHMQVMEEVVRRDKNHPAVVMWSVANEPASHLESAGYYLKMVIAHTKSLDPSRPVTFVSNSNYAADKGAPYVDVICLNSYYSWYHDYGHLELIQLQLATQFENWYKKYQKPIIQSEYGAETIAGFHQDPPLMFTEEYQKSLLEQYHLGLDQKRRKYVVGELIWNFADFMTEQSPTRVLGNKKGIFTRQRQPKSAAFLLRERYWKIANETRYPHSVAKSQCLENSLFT
# Procedure: Human β-glucuronidase (AcroBiosystems BEB-H52H3) was reconstituted in deionized water to a concentration of 1 mg ml^−1. The enzyme stock solution was further diluted in assay buffer (0.2 M acetate pH 4.5) to 10 μg ml^−1 (134 nM). β-GlcA-N1 (50 mM DMSO stock) was twofold serially diluted in assay buffer from 5 to 0.078 mM. The enzyme solution and diluted β-GlcA-N1 were incubated in a transparent 96-well plate and incubated at 37 °C until thermo equilibrium was reached. Then, 100 µl of β-GlcA-N1 at various concentrations was mixed with 100 µl of β-glucuronidase using a multichannel pipette, resulting in the following initial condition: [β-GlcA-N1] = 2.5, 1.25, 0.62, 0.31, 0.16, 0.08 and 0.04 mM; [β-glucuronidase] = 67 nM; 5% DMSO (v/v). The reactions were incubated at 37 °C. At 30-min and 60-min timepoints, a 50-µl portion was withdrawn from each reaction mixture and mixed with 50 µl of quenching buffer (1 M sodium carbonate, 1 mM TCEP). The concentration of liberated N1 was determined by comparing the absorbance of each quenched reaction at 410 nm to a calibration curve of purified N1. Reaction velocities were calculated from the slopes of [N1] versus time plots. The velocity versus [β-GlcA-N1] plot was then fitted with the standard Michaelis–Menten kinetic model (GraphPad Prism).
# MC38 tumours = conditions: for Tumor Size: individual mice, * = excluded once a death was recorded in the group
# Chain of E. coli β-glucuronidase (P05804 whole entry): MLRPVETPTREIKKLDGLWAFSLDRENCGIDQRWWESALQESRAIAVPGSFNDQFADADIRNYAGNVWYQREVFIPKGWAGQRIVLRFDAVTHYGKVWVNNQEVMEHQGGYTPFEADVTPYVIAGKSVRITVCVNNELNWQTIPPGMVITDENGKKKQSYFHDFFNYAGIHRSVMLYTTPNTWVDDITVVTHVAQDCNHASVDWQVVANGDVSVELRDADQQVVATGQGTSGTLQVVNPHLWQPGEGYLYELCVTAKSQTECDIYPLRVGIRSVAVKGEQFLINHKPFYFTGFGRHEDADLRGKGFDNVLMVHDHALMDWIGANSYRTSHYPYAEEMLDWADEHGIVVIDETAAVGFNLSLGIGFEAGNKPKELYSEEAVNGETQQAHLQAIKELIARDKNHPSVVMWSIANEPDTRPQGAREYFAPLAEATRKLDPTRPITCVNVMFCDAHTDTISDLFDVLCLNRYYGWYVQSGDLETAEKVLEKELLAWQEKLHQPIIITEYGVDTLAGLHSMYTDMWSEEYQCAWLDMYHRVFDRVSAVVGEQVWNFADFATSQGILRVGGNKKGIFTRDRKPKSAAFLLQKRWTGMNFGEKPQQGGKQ
smiles,measurement,setting,value
O=C(CCl)Nc1cc(C(F)(F)F)cc(C(F)(F)F)c1 [Compound C1],second-order,[1]; Time 2891 sec,0.0005428 and 0.0004879 and 0.0005765
same,second-order,[1]; Time 3071 sec,0.0005659 and 0.0004944 and 0.0005968
same,second-order,[1]; Time 3252 sec,0.0005928 and 0.000525 and 0.0006178
same,second-order,[1]; Time 3433 sec,0.0006132 and 0.0005166 and 0.0006465
same,second-order,[1]; Time 3613 sec,0.0006269 and 0.0005419 and 0.0006634
same,second-order,[1]; Time 3794 sec,0.0006518 and 0.0005802 and 0.0006849
same,second-order,[1]; Time 3974 sec,0.0006575 and 0.0005747 and 0.00069
same,second-order,[1]; Time 4155 sec,0.0006878 and 0.0006116 and 0.0007283
same,second-order,[1]; Time 4336 sec,0.0007043 and 0.0006446 and 0.000736
same,second-order,[1]; Time 4516 sec,0.0007158 and 0.0006546 and 0.0007684
same,second-order,[1]; Time 4697 sec,0.0007519 and 0.0006931 and 0.0007736
same,second-order,[1]; Time 4878 sec,0.0007648 and 0.000697 and 0.0008077
same,second-order,[1]; Time 5058 sec,0.000772 and 0.0007238 and 0.0008222
same,second-order,[1]; Time 5239 sec,0.0008041 and 0.000747 and 0.0008434
same,second-order,[1]; Time 5419 sec,0.0008239 and 0.0007489 and 0.0008675
same,second-order,[1]; Time 5600 sec,0.0008471 and 0.0007554 and 0.0008837
same,second-order,[1]; Time 5781 sec,0.0008692 and 0.0007775 and 0.0009026
same,second-order,[1]; Time 5961 sec,0.0008692 and 0.000805 and 0.0009333
same,reduction of the amount of N1–E4 dimer by the competitor,[2],35%
same,second-order,"[3]; Replicate 1, time 576 sec, second-order plot value",0.007537
same,second-order,"[3]; Replicate 1, time 606 sec, second-order plot value",0.007697
same,second-order,"[3]; Replicate 2, time 576 sec, second-order plot value",0.007533
same,second-order,"[3]; Replicate 2, time 606 sec, second-order plot value",0.00792
same,second-order,"[3]; Replicate 3, time 576 sec, second-order plot value",0.007357
same,second-order,"[3]; Replicate 3, time 606 sec, second-order plot value",0.007639
same,second-order,"[3]; time 0 sec, replicates 1-3",0.001153 and 0.001059 and 0.00116
same,second-order,"[3]; time 30 sec, replicates 1-3",0.001608 and 0.001493 and 0.001543
same,second-order,"[3]; time 60 sec, replicates 1-3",0.001966 and 0.001867 and 0.001909
same,second-order,"[3]; time 91 sec, replicates 1-3",0.002342 and 0.002215 and 0.002258
same,second-order,"[3]; time 121 sec, replicates 1-3",0.002679 and 0.002554 and 0.002612
same,second-order,"[3]; time 151 sec, replicates 1-3",0.002904 and 0.002968
same,second-order,"[3]; time 212 sec, replicates 1-3",0.003712 and 0.003583 and 0.003667
same,second-order,"[3]; time 242 sec, replicates 1-3",0.004057 and 0.003913 and 0.004
same,second-order,"[3]; time 273 sec, replicates 1-3",0.00439 and 0.004239 and 0.004347
same,second-order,"[3]; time 303 sec, replicates 1-3",0.004715 and 0.004571 and 0.004691
same,second-order,"[3]; time 333 sec, replicates 1-3",0.005043 and 0.004886 and 0.00503
same,second-order,"[3]; time 364 sec, replicates 1-3",0.005369 and 0.005207 and 0.005358
same,second-order,"[3]; time 394 sec, replicates 1-3",0.005645 and 0.005521 and 0.005712
same,second-order,"[3]; time 424 sec, replicates 1-3",0.005918 and 0.005838 and 0.006051
same,second-order,"[3]; time 454 sec, replicates 1-3",0.006191 and 0.006157 and 0.006365
same,second-order,"[3]; time 485 sec, replicates 1-3",0.006532 and 0.006449 and 0.006705
same,second-order,"[3]; time 515 sec, replicates 1-3",0.006798 and 0.006747 and 0.007019
same,second-order,"[3]; time 545 sec, replicates 1-3",0.007139 and 0.00704 and 0.007306
CCSc1cc2cc(C(=O)CCC(=O)O)sc2cc1OC [Compound E4-ctrl],"secretion of cytokines downstream of STING (interferon-β, CXCL-10, IL-6)",THP-1 Lucia ISG cells,diminished the cytokine inductions
COc1cc2sc(C(=O)CCC(=O)O)cc2cc1SCCCl [Compound E4],body weight,CT26mβGUS tumours [4],no significant losses were observed
same,concentration up to which no STING activation was shown (alone),THP-1 cells,> 64 µM
same,glutathione adduct formation,[5],No glutathione–E4 adduct was detected
same,stability in phosphate buffer without added enzyme,E. coli β-glucuronidase,most E4 underwent hydrolysis
COc1cc2sc(C(=O)CCC(=O)O)cc2cc1SCO[C@@H]1O[C@H](C(=O)O)[C@@H](O)[C@H](O)[C@H]1O [β-GlcA-N1],fraction remaining intact in human plasma,[6],more than 90%
same,body weight,CT26mβGUS tumours [7],no significant losses were observed
same,kcat,human β-glucuronidase; Vmax / enzyme (6.71141e-8 M),0.4762
same,dilution-corrected deltaN1,human β-glucuronidase; substrate conc. 0.0390625 mM,4.272e-06 mM/s and 3.586e-06 mM/s
same,dilution-corrected deltaN1,human β-glucuronidase; substrate conc. 0.078125 mM,6.962e-06 mM/s and 7.225e-06 mM/s
same,dilution-corrected deltaN1,human β-glucuronidase; substrate conc. 0.15625 mM,1.1761e-05 mM/s and 1.16e-05 mM/s
same,dilution-corrected deltaN1,human β-glucuronidase; substrate conc. 0.3125 mM,1.598e-05 mM/s and 1.529e-05 mM/s
same,dilution-corrected deltaN1,human β-glucuronidase; substrate conc. 0.625 mM,2.231e-05 mM/s and 1.587e-05 mM/s
same,dilution-corrected deltaN1,human β-glucuronidase; substrate conc. 1.25 mM,2.547e-05 mM/s and 2.51e-05 mM/s
same,dilution-corrected deltaN1,human β-glucuronidase; substrate conc. 2.5 mM,3.022e-05 mM/s and 2.88e-05 mM/s
same,Tumor Size,MC38 tumours; day 23,113* mm^3 and 189.9* mm^3
same,Tumor Size,MC38 tumours; day 25,125.8124* mm^3 and 301.5* mm^3
same,Tumor Size,MC38 tumours; day 30,445.0408* mm^3 and 632.5* mm^3
same,Tumor Size,MC38 tumours; day 33,1167* mm^3 and 1562* mm^3
same,Survival: Days,"MC38 tumours; mouse, in vivo",17 days and 33 days and 21 days
same,Survival: death event (1 denotes a death event),"MC38 tumours; mouse, in vivo",1
same,stability in phosphate buffer without added enzyme,E. coli β-glucuronidase,remained stable
